Assay results from US8039438B2, “Synthetic peptides that cause F-actin bundling and block actin depolymerization” (The Regents of the University of California, priority 2003, dated 2011).

Columns and labels:
MDA 231 cells = test: Actin reorganization in MDA 231 cells electroporated with peptide, rhodamine-phalloidin stained; type: cell-based, human
Protocol: Referring now to FIG. 2, it can be shown that treatment with an active peptide results in actin organization in human mammary epithelial tumor cells. MDA 231 cells were electroporated with SS1 (panel A) or SS12 (panel B), fixed, and rhodamine-phalloidin stained. Control epithelial tumor cells were treated with SS1 (SEQ ID NO: 9) resulting in no effect on actin-filled lamellipodia (or ruffling) characteristic of crawling cells.
MDA 231 cells are a particularly aggressive tumor cell line crawling and moving from between tissues.

actin/pyrene-actin = actin/pyrene-actin (Oryctolagus cuniculus, UniProt P68135); test: Actin/pyrene-actin polymerization fluorescence (nucleating or capping activity); type: biochemical; conditions: time-dependent fluorescence increase; data not shown
From the text: Upon binding to ActA, the Arp2/3 complex has enhanced nucleating activity for actin polymerization (Skoble J, Portnoy D A, Welch M D, Three regions within ActA promote Arp2/3 complex-mediated actin nucleation and Listeria monocytogenes motility; J Cell Biol. […] Aug. 7; 150(3):527-38). We tested a possible involvement of the homologous sequence on nucleating or capping activity by following the time-dependent fluorescence increase upon actin/pyrene-actin polymerization in the presence of the synthetic peptide SS12.

GIVRKWISRFEVWPYL (SS12 active synthetic peptide)
cell movement (MDA 231 cells; MDA 231 cells after peptide treatment): ceased movement
effect on actin-filled lamellipodia (MDA 231 cells; MDA 231 cells electroporated with peptide): no longer have lamellipodia
nucleating or capping activity (actin/pyrene-actin): did not show any nucleating or capping activity
